# According to patent US10023902B2, “Methods for detecting enzyme activity using fluorescence lifetime imaging” (Purdue Research Foundation, priority 2012, dated 2018):
# Residues, ends and D or L forms follow the SMILES beside them. No end group written: not given here. *: point of attachment. X1 = C[N+]1=C(C=CC=CC=C2N(CCCCCC(=O)NCCN3C(=O)CC(*)C3=O)c3ccccc3C2(C)C)C(C)(C)c2ccccc21; Cy5 = Cy5 fluorophore label on the Cys side chain
# Assays:
# [1] = test system: MEFs; details: FCS, Cy5 alone vs biosensor
# Description: Sequestration of the biosensor in endosomes was tested by staining for an endosomal marker. […] Peptide degradation, a potential issue in some cell types, was also examined.
# [2] = test system: Abl kinase; test: Biosensor Cy5 fluorescence lifetime analysis in live MEFs (FLIM); assay type: cell-based, mouse; details: control MEFs expressing Abl kinase, 50 nM, 24 h; non-parametric ANOVA, P<0.05
# Description: With reference to FIG. 3, WT MEF cells (unless otherwise indicated) were cultured on cover slips and incubated with the biosensor peptide or a control (as indicated, 50 nM for each) for 24 h, then imaged using the FLIM system. Data were extracted from raw FLIM images and represented as lifetime maps of autofluorescence, Cy5 only, Abl-TAT in Abl (−/−) MEFs, Abl-TAT in WT MEFs, Abl-F-mutant, Abl-phospho. With reference to FIG. 3A, fluorophore lifetime per cell was averaged for at least 20 cells in 3-5 replicate experiments and plotted as a distribution of lifetimes observed in each condition. Error bars represent standard error of the mean for each lifetime value. […] Error bars represent SEM.
# Cover slips were washed with PBS and imaged immediately.
# Average lifetimes per cell for multiple cells were calculated and plotted to show the distribution of lifetimes observed for the biosensor and each control (FIG. 3G). The distributions were determined to be non-Gaussian, so non-parametric ANOVA with a Dunn's post-test was used to evaluate statistical significance (P<0.05) for differences in the mean lifetimes. […] These experiments confirmed that the increase in Cy5 lifetime was specific and due to Abl-dependent phosphorylation of the biosensor peptide on tyrosine. […]
# [3] = test system: Syk kinase; test: FLIM detection of Syk kinase activity with SAStide-TAT biosensor in MCF7 breast cancer cells; assay type: cell-based
compound,measurement,setting,value
CC[C@H](C)[C@H](NC(=O)[C@H](C)NC(=O)[C@H](CCC(=O)O)NC(=O)CNC(=O)CN)C(=O)N[C@@H](Cc1ccc(O)cc1)C(=O)N[C@@H](C)C(=O)N[C@@H](C)C(=O)N1CCC[C@H]1C(=O)N[C@@H](CSC1CC(=O)N(CCNC(=O)CCCCCN2C(=CC=CC=CC3=[N+](C)c4ccccc4C3(C)C)C(C)(C)c3ccccc32)C1=O)C(=O)NCC(=O)NCC(=O)N[C@@H](CCCNC(=N)N)C(=O)N[C@@H](CCCCN)C(=O)N[C@@H](CCCCN)C(=O)N[C@@H](CCCNC(=N)N)C(=O)N[C@@H](CCCNC(=N)N)C(=O)N[C@@H](CCC(N)=O)C(=O)N[C@@H](CCCNC(=N)N)C(=O)N[C@@H](CCCNC(=N)N)C(=O)N[C@@H](CCCNC(=N)N)C(=O)N1CCC[C@H]1C(=O)N[C@@H](CCC(N)=O)C(=O)O (some centres unmarked) [Abl-TAT] (H-GGEAIYAAPC(X1)GGRKKRRQRRRPQ-OH),peptide degradation to free Cy5,[1],not degraded to free Cy5
"CCN1/C(=C/C=C/C=C/C2=[N+](CCCCCC(=O)O)c3ccc(S(=O)(=O)O)cc3C2(C)C)C(C)(C)c2cc(S(=O)(=O)[O-])ccc21 [Cy5, reference compound]",mean Cy5 fluorescence lifetime per cell,[2],significantly lower mean lifetimes than both Abl-TAT in MEFs expressing Abl kinase and Abl-phospho
"COc1cc(Nc2ncc(F)c(Nc3ccc4c(n3)N(COP(=O)(O)O)C(=O)C(C)(C)O4)n2)cc(OC)c1OC [fostamatinib, reference compound]",regions of increased Cy5 lifetime after inhibitor pre-treatment,"[3]; Syk +/+ cells pre-treated with SAStide-TAT-Cy5 biosensor and inhibitor, 1 hour",no regions of increased lifetime were observed
"Abl-F-mutant: analog having a phenylalanine substitution for the tyrosine residue of the Abltide-TAT biosensor, SEQ ID NO:3 (EAIYAAP)",mean Cy5 fluorescence lifetime per cell,[2],significantly lower mean lifetimes than both Abl-TAT in MEFs expressing Abl kinase and Abl-phospho
"DEEDYEEPDEPGGCCy5GGRKKRRQRRRPQ (DEEDYEEPDEPGGC(Cy5)GGRKKRRQRRRPQ) [SAStide-TAT, Cy5-labeled Syk substrate peptide]",Cy5 lifetime shift of biosensor,"[3]; active Syk-expressing cells, pervanadate (Syk activation conditions), co-localizes with decreased EGFP lifetime",increased Cy5 lifetime
